Measured values: patent US5159081A, “Intermediates of peripherally selective N-carbonyl-3,4,4-trisubstituted piperidine opioid antagonists” (Eli Lilly and Company, priority 1991, dated 1992)
Like-named read-outs stand apart in the source and are kept apart here.

Columns and labels:
[1] = tested on: peripheral opioid receptors; assay: mouse diarrhea test: precipitated diarrhea in morphine-maintained mice (peripheral opioid activity); assay type: in vivo; conditions: AD50 mouse writhing / ED50 mouse diarrhea; higher = greater relative peripheral antagonism
[2] = target: peripheral opioid receptors (Mus musculus, UniProt P42866); assay: as above; assay type: in vivo; conditions: mouse diarrhea test, morphine-maintained mice, subcutaneous or oral, 30 min observation
opioid receptor = target: T1, opioid receptor (Mus musculus, UniProt P42866); assay: in vivo; set-up: species or system CF-1 male mice; conditions: sc; mouse writhing test; […]; s.c. 20 min before acetic acid; read-out: AD50 (the source's name)
T1 construct: Five CF-1 male mice (Charles River, Portage, MI); from tissue; host or cells: living CF-1 male mice (whole animal, endogenous receptor)

mu receptor = target: T2, mu receptor (Rattus norvegicus, UniProt P33535); assay: Naloxone [3H] opioid receptor binding assay (mu receptor); set-up: species or system rat (male Sprague Dawley); conditions: 20 min; for Ki: rat whole brain minus cerebellum, pH 7.4, 37° C., read-out: Ki
T2 construct: The brain tissue, rat whole brain minus cerebellum for mu was homogenized; from tissue; host or cells: brain minus cerebellum of male Sprague Dawley rats, homogenate fraction

[3] = pH 7.4, 10 nM test compound, [3H]naloxone 0.5 nM, mu receptor, read-out: % displacement at 10 nM
[4] = pH 7.4, 100 nM test compound, [3H]naloxone 0.5 nM, mu receptor, read-out: % displacement at 100 nM
[5] = pH 7.4, read-out: % displacement at 10 nM
[6] = pH 7.4, read-out: % displacement at 100 nM

T1 sequence (P42866 whole entry): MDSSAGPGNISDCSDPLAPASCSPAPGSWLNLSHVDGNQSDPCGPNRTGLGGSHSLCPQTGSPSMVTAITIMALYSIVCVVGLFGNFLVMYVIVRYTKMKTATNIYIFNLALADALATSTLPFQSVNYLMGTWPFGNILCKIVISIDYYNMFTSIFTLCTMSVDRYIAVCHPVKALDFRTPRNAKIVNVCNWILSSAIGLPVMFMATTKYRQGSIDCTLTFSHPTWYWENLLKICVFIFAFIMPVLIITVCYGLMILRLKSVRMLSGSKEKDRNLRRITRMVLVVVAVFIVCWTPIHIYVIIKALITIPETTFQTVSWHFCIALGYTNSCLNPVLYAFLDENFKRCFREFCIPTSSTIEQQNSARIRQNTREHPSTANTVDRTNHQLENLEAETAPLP
Sequence of peripheral opioid receptors (Mus musculus, UniProt P42866) (P42866 whole entry): as above
T2 sequence (P33535 whole entry): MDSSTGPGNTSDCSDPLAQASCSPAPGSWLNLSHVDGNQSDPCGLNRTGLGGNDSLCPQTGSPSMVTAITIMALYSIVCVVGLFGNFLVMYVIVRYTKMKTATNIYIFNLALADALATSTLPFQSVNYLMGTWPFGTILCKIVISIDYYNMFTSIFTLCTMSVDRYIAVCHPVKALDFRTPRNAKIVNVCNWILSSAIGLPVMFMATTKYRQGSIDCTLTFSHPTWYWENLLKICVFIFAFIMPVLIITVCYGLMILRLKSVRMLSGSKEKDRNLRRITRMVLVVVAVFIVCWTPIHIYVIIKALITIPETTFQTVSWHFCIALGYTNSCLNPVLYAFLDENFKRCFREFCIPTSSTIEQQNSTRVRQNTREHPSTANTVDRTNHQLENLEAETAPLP

SMILES	Ratio (ratio of AD50 to ED50) [1]	ED50 ([2]; 0.5 h, read-out: ED50) [mg/kg]	ED50 (opioid receptor) [mg/kg]	inhibition at 0.01 µM (mu receptor; [3]) [%]	inhibition at 0.1 µM (mu receptor; [4]) [%]	ED50 [2] [mg/kg]	inhibition at 0.01 µM (mu receptor; [5]) [%]	inhibition at 0.1 µM (mu receptor; [6]) [%]	Ki (mu receptor; [3H]naloxone 0.5 nM) [nM]
CC(=O)NC(CCCNC(=N)N[N+](=O)[O-])C(=O)NCCN1CCC(C)(c2cccc(O)c2)C(C)C1 (stereo not drawn) [Example 42, N-(2-(trans-4-(3-hydroxyphenyl)-3,4-dimethyl-1-piperidinyl)ethyl)-2-(acetylamino)-5-((imino(nitroamino)-methyl)amino)pentanamide monohydrate]	> 160	0.12	> 20	44	89	–	–	–	–
CC(C)CC(=O)NC(CCCNC(=N)N[N+](=O)[O-])C(=O)NCCN1CCC(C)(c2cccc(O)c2)C(C)C1 (stereo not drawn) [Example 43, Trans-N-(2-(4-(3-hydroxyphenyl)-3,4-dimethyl-1-piperidinyl)ethyl)-2-((3-methyl-1-oxobutyl)amino)-5-((imino(nitroamino)methyl)amino) pentanamide]	> 10	< 1	> 10	59	97	–	–	–	–
CC1CN(CCNC(=O)[C@H](CCCNC(=N)N[N+](=O)[O-])NC(=O)OC(C)(C)C)CCC1(C)c1cccc(O)c1 (stereo partly drawn) [Example 44, (1-(((2-(Trans-4-(3-hydroxyphenyl)-3,4-dimethyl-1-piperidinyl)ethyl)amino)carbonyl)-4-((imino(nitroamino)methyl)amino)butyl) carbamic acid, 1,1-dimethylethyl ester]	> 30	–	> 2	–	–	0.07	63	85	2.34
C[C@H]1CN(C[C@H](CC2CCCCC2)NC(=O)CCCC(=O)O)CC[C@@]1(C)c1cccc(O)c1 [Example 45D]	> 1379	–	> 40	–	–	0.029	82	94	0.56
C[C@H]1CN(C[C@@H](CC2CCCCC2)NC(=O)CCCC(=O)O)CC[C@@]1(C)c1cccc(O)c1 [Example 46D]	72	–	6.5	–	–	0.09	48	84	–
C[C@@H]1CN(C[C@H](CC2CCCCC2)NC(=O)CCCC(=O)O)CC[C@]1(C)c1cccc(O)c1 [Example 47D]	> 4000	–	> 40	–	–	0.01	85	95	1.55
C[C@@H]1CN(C[C@@H](CC2CCCCC2)NC(=O)CCCC(=O)O)CC[C@]1(C)c1cccc(O)c1 [Example 48D]	> 800	–	> 40	–	–	0.05	30	78	–
COC(=O)CCCC(=O)N[C@@H](CC1CCCCC1)CN1CC[C@@](C)(c2cccc(O)c2)[C@@H](C)C1 [Example 50]	357	–	20	–	–	0.056	87	99	3.24
CCOC(=O)CCCC(=O)N[C@@H](CC1CCCCC1)CN1CC[C@@](C)(c2cccc(O)c2)[C@@H](C)C1 [Example 52]	1400	–	28	–	–	0.02	87	96	2.34
CCCOC(=O)CCCC(=O)N[C@@H](CC1CCCCC1)CN1CC[C@](C)(c2cccc(O)c2)[C@H](C)C1 [Example 53]	> 38	–	> 40	–	–	1.06	50	88	–
CCCOC(=O)CCCC(=O)N[C@@H](CC1CCCCC1)CN1CC[C@@](C)(c2cccc(O)c2)[C@@H](C)C1 [Example 54]	18000	–	27	–	–	0.0015	81	96	5.07
CC(C)COC(=O)CCCC(=O)N[C@@H](CC1CCCCC1)CN1CC[C@](C)(c2cccc(O)c2)[C@H](C)C1 [Example 55]	> 800	0.05	> 40	40	86	–	–	–	–
CC(C)COC(=O)CCCC(=O)N[C@@H](CC1CCCCC1)CN1CC[C@@](C)(c2cccc(O)c2)[C@@H](C)C1 [Example 56]	20000	0.002	> 40	61	92	–	–	–	–
CCCCCCCOC(=O)CCCC(=O)N[C@@H](CC1CCCCC1)CN1CC[C@@](C)(c2cccc(O)c2)[C@@H](C)C1 [Example 57]	> 588	0.068	> 40	0	9	–	–	–	–
CC(C)COC(=O)CCCC(=O)N[C@H](CC1CCCCC1)CN1CC[C@](C)(c2cccc(O)c2)[C@H](C)C1 [Example 58]	> 235	0.17	> 40	0	38	–	–	–	–
CC(C)COC(=O)CCCC(=O)N[C@H](CC1CCCCC1)CN1CC[C@@](C)(c2cccc(O)c2)[C@@H](C)C1 [Example 59]	> 678	0.059	> 40	6	53	–	–	–	–
C[C@@H]1CN(C[C@H](CC2CCCCC2)NC(=O)CCCC(=O)OCC(N)=O)CC[C@]1(C)c1cccc(O)c1 [Example 60]	> 285	–	> 10	–	–	0.035	76	95	5.96
C[C@H]1CN(C[C@H](CC2CCCCC2)NC(=O)CCCC(=O)OCC(N)=O)CC[C@@]1(C)c1cccc(O)c1 [Example 61]	169	–	22	–	–	0.13	88	97	2.86
CNC(=O)COC(=O)CCCC(=O)N[C@@H](CC1CCCCC1)CN1CC[C@](C)(c2cccc(O)c2)[C@H](C)C1 [Example 62]	> 1333	–	> 40	–	–	0.03	70	96	–
CNC(=O)COC(=O)CCCC(=O)N[C@@H](CC1CCCCC1)CN1CC[C@@](C)(c2cccc(O)c2)[C@@H](C)C1 [Example 63]	4000	–	12	–	–	0.003	87	99	2.13
CCNC(=O)COC(=O)CCCC(=O)N[C@@H](CC1CCCCC1)CN1CC[C@](C)(c2cccc(O)c2)[C@H](C)C1 [Example 65]	> 2000	–	> 40	–	–	0.02	67	93	–
CCNC(=O)COC(=O)CCCC(=O)N[C@@H](CC1CCCCC1)CN1CC[C@@](C)(c2cccc(O)c2)[C@@H](C)C1 [Example 66]	2440	–	12.2	–	–	0.005	81	94	1.84
COC1CCC(OC(=O)CCCC(=O)N[C@@H](CC2CCCCC2)CN2CC[C@@](C)(c3cccc(O)c3)[C@@H](C)C2)CC1 (stereo partly shown) [Example 68]	65	0.29	18.8	68	95	–	–	–	–
COC1CCC(OC(=O)CCCC(=O)N[C@@H](CC2CCCCC2)CN2CC[C@](C)(c3cccc(O)c3)[C@H](C)C2)CC1 (stereo partly shown) [Example 69]	> 1333	0.03	> 40	37	83	–	–	–	–
Cc1oc(=O)oc1COC(=O)CCCC(=O)N[C@@H](CC1CCCCC1)CN1CC[C@@](C)(c2cccc(O)c2)[C@@H](C)C1 [Example 70]	1070	–	18.2	–	–	0.017	89	99	1.78
